# Laboratory results reported in PubChem BioAssay (NCI).
#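 GI50: concentration for 50% inhibition of growth. Definition used: TGI = concentration required for complete inhibition of growth.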
# Columns and labels:
# Assay in all cases: DTP human tumour cell line panel, 384-well format
# SF-268 CNS = test system: SF-268 CNS
# COLO 205 colon = test system: COLO 205 colon
# SW-620 colon = test system: SW-620 colon
# SK-OV-3 ovarian = test system: SK-OV-3 ovarian
# OVCAR-5 ovarian = test system: OVCAR-5 ovarian
# KM12 colon = test system: KM12 colon
# OVCAR-4 ovarian = test system: OVCAR-4 ovarian
# MOLT-4 leukemia = test system: MOLT-4 leukemia
# EKVX NSCLC = test system: EKVX NSCLC
# K-562 leukemia = test system: K-562 leukemia
# ACHN renal = test system: ACHN renal
# HCT-15 colon = test system: HCT-15 colon
# SK-MEL-2 melanoma = test system: SK-MEL-2 melanoma
# UACC-62 melanoma = test system: UACC-62 melanoma
# MDA-MB-435 melanoma = test system: MDA-MB-435 melanoma
# NCI-H460 NSCLC = test system: NCI-H460 NSCLC
# MDA-MB-231 breast = test system: MDA-MB-231 breast
# HS 578T breast = test system: HS 578T breast
# OVCAR-8 ovarian = test system: OVCAR-8 ovarian
# HL-60(TB) leukemia = test system: HL-60(TB) leukemia
# DU-145 prostate = test system: DU-145 prostate
# SF-295 CNS = test system: SF-295 CNS
# MALME-3M melanoma = test system: MALME-3M melanoma
# MCF7 breast = test system: MCF7 breast
# NCI-H226 lung = test system: NCI-H226 lung
# BT-549 breast = test system: BT-549 breast
# UACC-257 melanoma = test system: UACC-257 melanoma
# HT29 colon = test system: HT29 colon
# IGROV1 ovarian = test system: IGROV1 ovarian
# 786-0 renal = test system: 786-0 renal
# MDA-MB-468 breast = test system: MDA-MB-468 breast
# NCI-H23 lung = test system: NCI-H23 lung
# OVCAR-3 ovarian = test system: OVCAR-3 ovarian
# SF-539 CNS = test system: SF-539 CNS
# A498 renal = test system: A498 renal
# SNB-19 CNS = test system: SNB-19 CNS
# A549 NSCLC = test system: A549 NSCLC
# HCC-2998 colon = test system: HCC-2998 colon
# HOP-92 NSCLC = test system: HOP-92 NSCLC
# SNB-75 CNS = test system: SNB-75 CNS
# RPMI-8226 leukemia = test system: RPMI-8226 leukemia
# T-47D breast = test system: T-47D breast
# NCI/ADR-RES ovarian = test system: NCI/ADR-RES ovarian
# RXF 393 renal = test system: RXF 393 renal
# HCT-116 colon = test system: HCT-116 colon
# PC-3 prostate = test system: PC-3 prostate
# SK-MEL-28 melanoma = test system: SK-MEL-28 melanoma
# NCI-H322M lung = test system: NCI-H322M lung
# U251 glioblastoma = test system: U251 glioblastoma
# SN12C renal = test system: SN12C renal
# SK-MEL-5 melanoma = test system: SK-MEL-5 melanoma
# M14 melanoma = test system: M14 melanoma
# CCRF-CEM leukemia = test system: CCRF-CEM leukemia
# LOX IMVI melanoma = test system: LOX IMVI melanoma
# NCI-H522 lung = test system: NCI-H522 lung
# CAKI-1 renal = test system: CAKI-1 renal
# UO-31 renal = test system: UO-31 renal
# TK-10 renal = test system: TK-10 renal
# HOP-62 NSCLC = test system: HOP-62 NSCLC
structure (smiles),measurement,setting,value
CNC(=O)c1ccccc1Nc1nc(Nc2ccc(N3CCOCC3)cc2OC)ncc1Cl,GI50,SF-268 CNS,1620 nM
same,TGI,SF-268 CNS,14300 nM
same,GI50,COLO 205 colon,138 nM
same,TGI,COLO 205 colon,289 nM
same,GI50,SW-620 colon,400 nM
same,TGI,SW-620 colon,2440 nM
same,GI50,SK-OV-3 ovarian,741 nM
same,TGI,SK-OV-3 ovarian,4800 nM
same,GI50,OVCAR-5 ovarian,597 nM
same,TGI,OVCAR-5 ovarian,5660 nM
same,GI50,KM12 colon,261 nM
same,TGI,KM12 colon,899 nM
same,GI50,OVCAR-4 ovarian,547 nM
same,TGI,OVCAR-4 ovarian,18700 nM
same,GI50,MOLT-4 leukemia,200 nM
same,TGI,MOLT-4 leukemia,380 nM
same,GI50,EKVX NSCLC,158 nM
same,TGI,EKVX NSCLC,1320 nM
same,GI50,K-562 leukemia,4530 nM
same,TGI,K-562 leukemia,18100 nM
same,GI50,ACHN renal,1110 nM
same,TGI,ACHN renal,9280 nM
same,GI50,HCT-15 colon,464 nM
same,TGI,HCT-15 colon,10900 nM
same,GI50,SK-MEL-2 melanoma,333 nM
same,TGI,SK-MEL-2 melanoma,1670 nM
same,GI50,UACC-62 melanoma,487 nM
same,TGI,UACC-62 melanoma,2910 nM
same,GI50,MDA-MB-435 melanoma,441 nM
same,TGI,MDA-MB-435 melanoma,6630 nM
same,GI50,NCI-H460 NSCLC,267 nM
same,TGI,NCI-H460 NSCLC,1160 nM
same,GI50,MDA-MB-231 breast,715 nM
same,TGI,MDA-MB-231 breast,> 100000 nM
same,GI50,HS 578T breast,977 nM
same,TGI,HS 578T breast,3470 nM
same,GI50,OVCAR-8 ovarian,846 nM
same,TGI,OVCAR-8 ovarian,5780 nM
same,GI50,HL-60(TB) leukemia,107 nM
same,TGI,HL-60(TB) leukemia,264 nM
same,GI50,DU-145 prostate,485 nM
same,TGI,DU-145 prostate,3470 nM
same,GI50,SF-295 CNS,511 nM
same,TGI,SF-295 CNS,7440 nM
same,GI50,MALME-3M melanoma,287 nM
same,TGI,MALME-3M melanoma,4720 nM
same,GI50,MCF7 breast,93.7 nM
same,TGI,MCF7 breast,14600 nM
same,GI50,NCI-H226 lung,636 nM
same,TGI,NCI-H226 lung,5350 nM
same,GI50,BT-549 breast,1260 nM
same,TGI,BT-549 breast,10400 nM
same,GI50,UACC-257 melanoma,2620 nM
same,TGI,UACC-257 melanoma,22200 nM
same,GI50,HT29 colon,200 nM
same,TGI,HT29 colon,1660 nM
same,GI50,IGROV1 ovarian,380 nM
same,TGI,IGROV1 ovarian,1910 nM
same,GI50,786-0 renal,997 nM
same,TGI,786-0 renal,4990 nM
same,GI50,MDA-MB-468 breast,655 nM
same,TGI,MDA-MB-468 breast,2200 nM
same,GI50,NCI-H23 lung,431 nM
same,TGI,NCI-H23 lung,2630 nM
same,GI50,OVCAR-3 ovarian,716 nM
same,TGI,OVCAR-3 ovarian,6280 nM
same,GI50,SF-539 CNS,1390 nM
same,TGI,SF-539 CNS,7130 nM
same,GI50,A498 renal,519 nM
same,TGI,A498 renal,9570 nM
same,GI50,SNB-19 CNS,2690 nM
same,TGI,SNB-19 CNS,19600 nM
same,GI50,A549 NSCLC,398 nM
same,TGI,A549 NSCLC,2120 nM
same,GI50,HCC-2998 colon,711 nM
same,TGI,HCC-2998 colon,3360 nM
same,GI50,HOP-92 NSCLC,472 nM
same,TGI,HOP-92 NSCLC,2230 nM
same,GI50,SNB-75 CNS,1160 nM
same,TGI,SNB-75 CNS,4180 nM
same,GI50,RPMI-8226 leukemia,236 nM
same,TGI,RPMI-8226 leukemia,826 nM
same,GI50,T-47D breast,1710 nM
same,TGI,T-47D breast,8710 nM
same,GI50,NCI/ADR-RES ovarian,499 nM
same,TGI,NCI/ADR-RES ovarian,2720 nM
same,GI50,RXF 393 renal,467 nM
same,TGI,RXF 393 renal,2310 nM
same,GI50,HCT-116 colon,562 nM
same,TGI,HCT-116 colon,2850 nM
same,GI50,PC-3 prostate,1870 nM
same,TGI,PC-3 prostate,13500 nM
same,GI50,SK-MEL-28 melanoma,1340 nM
same,TGI,SK-MEL-28 melanoma,13400 nM
same,GI50,NCI-H322M lung,1320 nM
same,TGI,NCI-H322M lung,3980 nM
same,GI50,U251 glioblastoma,2350 nM
same,TGI,U251 glioblastoma,13200 nM
same,GI50,SN12C renal,1380 nM
same,TGI,SN12C renal,6860 nM
same,GI50,SK-MEL-5 melanoma,766 nM
same,TGI,SK-MEL-5 melanoma,10700 nM
same,GI50,M14 melanoma,359 nM
same,TGI,M14 melanoma,5880 nM
same,GI50,CCRF-CEM leukemia,199 nM
same,TGI,CCRF-CEM leukemia,376 nM
same,GI50,LOX IMVI melanoma,754 nM
same,TGI,LOX IMVI melanoma,2500 nM
same,GI50,NCI-H522 lung,407 nM
same,TGI,NCI-H522 lung,1720 nM
same,GI50,CAKI-1 renal,664 nM
same,TGI,CAKI-1 renal,2440 nM
same,GI50,UO-31 renal,718 nM
same,TGI,UO-31 renal,5320 nM
same,GI50,TK-10 renal,450 nM
same,TGI,TK-10 renal,2190 nM
same,GI50,HOP-62 NSCLC,751 nM
same,TGI,HOP-62 NSCLC,8770 nM
